Like-named read-outs stand apart in the source and are kept apart here.

For 5 molecules, response vs control in vivo results are on record in patent US4689326A, “Process for controlling hyperlipidemia” (Research Corporation, priority 1985, dated 1987).

Format in all cases: in vivo, CF1 male mice
For assay [1], the system named is serum cholesterol. Kind of assay: Hypolipidemic Activity of Compounds 1 and 10-33, Example 13: serum cholesterol. The settings on record: Mus musculus, 20 mg/kg/day ip. As for the experimental part: (§1) Compounds 1 and 10-33, identified below in Table 11, were suspended by homogenation in a 1% aqueous solution of carboxymethylcellulose (CMC) such that a 0.2 ml dosage supplied a concentration of 20 mg/kg of the active compounds. The suspending agent, the 1% aqueous solution of CMC, was utilized as a control, applied in the same quantity, 0.2 ml. CF1 male mice, maintained in groups of six, were fed Wayne Blox [trademark] laboratory animal show ad libitum with water. The mice, which each weighed approximately 25 g, were administered the drugs interperitoneally at approximately the same time. On days 9 and 16 approximately […] of blood was taken from each of the animals by tail bleeding. After centrifugation to obtain serum, 25 microliter samples were assayed for total cholesterol utilizing the method of Ness et al. Serum triglyicerides were assayed, using a commercially available BioDynamics/bmc triglyiceride kit, on blood collected on the 16th day. By comparison to standards the milligram percent of cholesterol and milligram per deciliter concentration of triglicerides were calculated. Treated values were expressed as a percent of the level of the control animals plus or minus the standard deviation. The "T" values were obtained using the Student's "t" test.

For assay [2], the system named is serum triglycerides. Briefly: Hypolipidemic Activity of Compounds 1 and 10-33, Example 13: serum triglycerides. As to conditions: Mus musculus, 384 h; 20 mg/kg/day ip, day 16, ± SD; read-out: Serum Triglyceride as a function of control, 16 Day. The procedure: as §1
The subject of assay [3] is serum triglycerides. Briefly: Testing of Normal Mice: serum triglycerides (BioDynamics kit), Example 7. As to conditions: Mus musculus, 384 h, day 16, ± SD; for response vs control in vivo at 20 mg/kg: 20 mg/kg/day ip. The procedure:
(§2) Suspensions of Compounds Nos. 1-9 were prepared wherein the compounds were suspended in an aqueous 1% carboxymethylcelluose solution, homogenized and administered to CF1 male mice, each weighing approximately 25 grams, intraperitoneally on a daily basis for 16 days. The dosage was, with the exception of one compound, 20 milligrams of the active compound per kilogram of mouse weight per day. On days 9 and 16 blood was obtained by tail vein bleeding. The blood serum was separated by centrifugation for three minutes. Serum cholesterol levels were determined by a modification of the Liebermann-Burchard reaction. Serum was also collected on day 16 and the triglycerides content was determined by a commercial kit, BioDynamics/bnc Single Vile Colorimetric Method 348201. Each compound was tested on a group of six mice.
(§3) In addition to the above-described treated mice, untreated control groups of six mice were similarly tested on days 9 and 14 or 16 to determine their serum cholesterol and triglycerides blood levels. Table 5 reports the percent control, based on the serum cholesterol and serum triglyceride levels of the treated mice compared to the untreated controls. Table 5 also includes the standard deviation indicating the level of confidence of these numbers.
(§4) Example 7 was repeated substituting clofibrate, a compound used in the prior art to lower serum cholesterol and serum triglyceride levels. The clofibrate was administered as a suspension in an aqueous 1% solution of carboxymethylcellulose. However, unlike the compounds of the present invention which were administered at a dosage of 20 mg/kg day, ip, this compound was administered at the elevated concentration of 150 mg/kg day, ip.

In assay [4] the test system is serum cholesterol. Kind of assay: Testing of Normal Mice: serum cholesterol (modified Liebermann-Burchard), Example 7. The settings on record: Mus musculus; for response vs control in vivo at 20 mg/kg: 20 mg/kg/day ip; for response vs control in vivo at 150 mg/kg: 150 mg/kg/day ip. As for the experimental part:
as §2, §3, §4

[5] abbreviates: 216 h, day 9, ± SD, read-out: Serum Cholesterol Control, % Day 9.
The mark [6] stands for this setting: 384 h, day 16, ± SD, read-out: Serum Cholesterol Control, % Day 16.

Turning to `O=c1[nH]c(=O)c2ccccc2c2ccccc12` [Compound 1, Diphenimide], the response vs control in vivo at 20 mg/kg in the assay with serum cholesterol [1] (216 h, day 9, ± SD, read-out: Serum Cholesterol as a function of control, 9 Day) was 81 ± 7%; in the assay on serum cholesterol [1] (384 h, day 16, ± SD, read-out: Serum Cholesterol as a function of control, 16 Day) it was 82 ± 4%; with serum triglycerides [2], 81 ± 7%; in the assay with serum triglycerides [3], 81 ± 7%; in the assay with serum cholesterol [4] (setting [5]) it was 81 ± 7%; in the assay with serum cholesterol [4] (setting [6]), 82 ± 4%.

For `CCCCN1Cc2ccccc2-c2ccccc2C1` [Compound 7, 2-butyl-3,4,5,6-dibenzohomopiperidine], the response vs control in vivo at 20 mg/kg with serum triglycerides [3] came out at 52 ± 7%; in the assay on serum cholesterol [4] (setting [5]) it was 82 ± 7%; in the assay on serum cholesterol [4] (setting [6]), 59 ± 6%.

As for `CCCCCN1Cc2ccccc2-c2ccccc2C1` [Compound 8, 2-pentyl-3,4,5,6-dibenzohomopiperidine], the values for the response vs control in vivo at 20 mg/kg in the assay with serum triglycerides [3], with serum cholesterol [4] (setting [5]) and in the assay on serum cholesterol [4] (setting [6]) were 71 ± 4%, 71 ± 6% and 67 ± 5%, respectively.

As for `CC(=O)CCN1Cc2ccccc2-c2ccccc2C1` [Compound 9, 2-(3-Oxobutyl)-3,4,5,6-Dibenzohomopiperidine], the values for the response vs control in vivo at 20 mg/kg with serum triglycerides [3], with serum cholesterol [4] (setting [5]) and in the assay on serum cholesterol [4] (setting [6]) were 45 ± 5%, 69 ± 8% and 56 ± 7%, respectively.

With `CCOC(=O)C(C)(C)Oc1ccc(Cl)cc1` [Compound C2, clofibrate, reference compound], the figures for the response vs control in vivo at 150 mg/kg in the assay on serum triglycerides [3] (150 mg/kg/day ip), with serum cholesterol [4] (setting [5]) and in the assay with serum cholesterol [4] (setting [6]) were 75 ± 5%, 88 ± 7% and 87 ± 5%, respectively.
